Laboratory results from ChEMBL document CHEMBL4507289, “Data for DCP probe GSM1” (2021).
Active and inactive are the calls of the source. The rule behind the calls is not given here.

Key:
[1] = target: Peripheral plasma membrane protein CASK (Homo sapiens) (UniProt O14936); conditions: Compound concentration 1000.0 nM
[2] = target: Serine/threonine-protein kinase pim-3 (Homo sapiens) (UniProt Q86V86); conditions: Compound concentration 1000.0 nM
[3] = target: Ribosomal protein S6 kinase alpha-6 (Homo sapiens) (UniProt Q9UK32); conditions: Compound concentration 1000.0 nM
[4] = target: Amyloid-beta precursor protein (Homo sapiens, UniProt P05067); assay: Aβ42 inhibition assay
[5] = target: Tyrosine-protein kinase receptor TYRO3 (Homo sapiens) (UniProt Q06418); conditions: Compound concentration 1000.0 nM
[6] = target: Serine/threonine-protein kinase PAK 4 (Homo sapiens) (UniProt O96013); conditions: Compound concentration 1000.0 nM
[7] = target: 5'-AMP-activated protein kinase catalytic subunit alpha-1 (Homo sapiens) (UniProt Q13131); conditions: Compound concentration 1000.0 nM
[8] = target: Protein kinase C iota type (Homo sapiens) (UniProt P41743); conditions: Compound concentration 1000.0 nM
[9] = target: STE20-like serine/threonine-protein kinase (Homo sapiens) (UniProt Q9H2G2); conditions: Compound concentration 1000.0 nM
[10] = target: Mitogen-activated protein kinase 4 (Homo sapiens) (UniProt P31152); conditions: Compound concentration 1000.0 nM
[11] = target: Serine/threonine-protein kinase RIO1 (Homo sapiens) (UniProt Q9BRS2); conditions: Compound concentration 1000.0 nM
[12] = target: Tyrosine-protein kinase ABL1 (Homo sapiens) (UniProt P00519); conditions: Compound concentration 1000.0 nM
[13] = test system: Receptor-type tyrosine-protein kinase FLT3 (Homo sapiens), P36888 [R834Q]; conditions: Compound concentration 1000.0 nM
[14] = target: Cyclin-dependent kinase 16 (Homo sapiens) (UniProt Q00536); conditions: Compound concentration 1000.0 nM
[15] = target: Serine/threonine-protein kinase SIK2 (Homo sapiens) (UniProt Q9H0K1); conditions: Compound concentration 1000.0 nM
[16] = target: Myosin light chain kinase 2, skeletal/cardiac muscle (Homo sapiens) (UniProt Q9H1R3); conditions: Compound concentration 1000.0 nM
[17] = target: Sigma intracellular receptor 2 (Homo sapiens, UniProt Q5BJF2); conditions: Compound concentration 10.0 uM
[18] = target: Serine/threonine-protein kinase 33 (Homo sapiens) (UniProt Q9BYT3); conditions: Compound concentration 1000.0 nM
Rattus norvegicus = species on record: Rattus norvegicus; conditions: Compound concentration 10.0 uM
[19] = target: 1-phosphatidylinositol 3-phosphate 5-kinase (Homo sapiens) (UniProt Q9Y2I7); conditions: Compound concentration 1000.0 nM
[20] = target: Ephrin type-A receptor 1 (Homo sapiens) (UniProt P21709); conditions: Compound concentration 1000.0 nM
[21] = target: Cyclin-dependent kinase 17 (Homo sapiens) (UniProt Q00537); conditions: Compound concentration 1000.0 nM
[22] = target: Muscarinic acetylcholine receptor M5 (Homo sapiens) (UniProt P08912); conditions: Compound concentration 10.0 uM
[23] = target: Mast/stem cell growth factor receptor Kit (Homo sapiens) (UniProt P10721); conditions: Compound concentration 1000.0 nM
[24] = target: Delta-type opioid receptor (Homo sapiens) (UniProt P41143); conditions: Compound concentration 10.0 uM
[25] = target: Mitogen-activated protein kinase kinase kinase 3 (Homo sapiens) (UniProt Q99759); conditions: Compound concentration 1000.0 nM
[26] = target: Inhibitor of nuclear factor kappa-B kinase subunit beta (Homo sapiens) (UniProt O14920); conditions: Compound concentration 1000.0 nM
[27] = target: Cyclin-dependent kinase 18 (Homo sapiens) (UniProt Q07002); conditions: Compound concentration 1000.0 nM
[28] = target: Serine/threonine-protein kinase MARK2 (Homo sapiens) (UniProt Q7KZI7); conditions: Compound concentration 1000.0 nM
[29] = target: Dual specificity mitogen-activated protein kinase kinase 2 (Homo sapiens) (UniProt P36507); conditions: Compound concentration 1000.0 nM
[30] = target: Ephrin type-A receptor 2 (Homo sapiens) (UniProt P29317); conditions: Compound concentration 1000.0 nM
[31] = target: BDNF/NT-3 growth factors receptor (Homo sapiens) (UniProt Q16620); conditions: Compound concentration 1000.0 nM
[32] = target: Tyrosine-protein kinase SYK (Homo sapiens) (UniProt P43405); conditions: Compound concentration 1000.0 nM
[33] = target: Serine/threonine-protein kinase Sgk1 (Homo sapiens) (UniProt O00141); conditions: Compound concentration 1000.0 nM
[34] = target: Serine/threonine-protein kinase 16 (Homo sapiens) (UniProt O75716); conditions: Compound concentration 1000.0 nM
[35] = target: Inhibitor of nuclear factor kappa-B kinase subunit alpha (Homo sapiens) (UniProt O15111); conditions: Compound concentration 1000.0 nM
[36] = target: Ribosomal protein S6 kinase beta-1 (Homo sapiens) (UniProt P23443); conditions: Compound concentration 1000.0 nM
[37] = target: Serine/threonine-protein kinase D2 (Homo sapiens) (UniProt Q9BZL6); conditions: Compound concentration 1000.0 nM
[38] = target: Tyrosine-protein kinase Mer (Homo sapiens) (UniProt Q12866); conditions: Compound concentration 1000.0 nM
[39] = target: Serine/threonine-protein kinase TNNI3K (Homo sapiens) (UniProt Q59H18); conditions: Compound concentration 1000.0 nM
[40] = target: Cyclin-dependent kinase 19 (Homo sapiens) (UniProt Q9BWU1); conditions: Compound concentration 1000.0 nM
[41] = target: Eukaryotic translation initiation factor 2-alpha kinase 1 (Homo sapiens) (UniProt Q9BQI3); conditions: Compound concentration 1000.0 nM
[42] = test system: Epidermal growth factor receptor (Homo sapiens), P00533 [UNDEFINED MUTATION]; conditions: Compound concentration 1000.0 nM
[43] = target: Vascular endothelial growth factor receptor 2 (Homo sapiens) (UniProt P35968); conditions: Compound concentration 1000.0 nM
[44] = target: Protein-tyrosine kinase 6 (Homo sapiens) (UniProt Q13882); conditions: Compound concentration 1000.0 nM
[45] = target: MAP kinase-activated protein kinase 2 (Homo sapiens) (UniProt P49137); conditions: Compound concentration 1000.0 nM

Amyloid-beta precursor protein, sequence (P05067 whole entry): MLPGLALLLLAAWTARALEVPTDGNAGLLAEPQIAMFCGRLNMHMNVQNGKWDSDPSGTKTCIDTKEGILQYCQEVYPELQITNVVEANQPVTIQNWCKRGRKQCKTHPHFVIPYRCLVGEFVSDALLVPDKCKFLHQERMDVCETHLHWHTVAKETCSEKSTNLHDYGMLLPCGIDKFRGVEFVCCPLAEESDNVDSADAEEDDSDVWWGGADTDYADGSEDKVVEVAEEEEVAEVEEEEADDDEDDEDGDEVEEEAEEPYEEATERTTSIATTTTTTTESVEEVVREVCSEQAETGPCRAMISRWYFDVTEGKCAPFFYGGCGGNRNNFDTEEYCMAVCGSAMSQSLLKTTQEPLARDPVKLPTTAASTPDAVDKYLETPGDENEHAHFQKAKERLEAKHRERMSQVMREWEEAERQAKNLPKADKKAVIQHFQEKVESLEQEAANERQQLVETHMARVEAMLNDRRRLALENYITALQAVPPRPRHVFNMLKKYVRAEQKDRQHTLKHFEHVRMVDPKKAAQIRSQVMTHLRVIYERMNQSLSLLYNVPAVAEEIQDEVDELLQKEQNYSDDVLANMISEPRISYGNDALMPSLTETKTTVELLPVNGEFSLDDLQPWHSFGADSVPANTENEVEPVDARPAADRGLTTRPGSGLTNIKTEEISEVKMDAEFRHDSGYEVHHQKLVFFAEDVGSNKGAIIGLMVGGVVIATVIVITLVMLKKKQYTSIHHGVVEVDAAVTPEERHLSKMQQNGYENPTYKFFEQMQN
Muscarinic acetylcholine receptor M5 (Homo sapiens), sequence (P08912 whole entry): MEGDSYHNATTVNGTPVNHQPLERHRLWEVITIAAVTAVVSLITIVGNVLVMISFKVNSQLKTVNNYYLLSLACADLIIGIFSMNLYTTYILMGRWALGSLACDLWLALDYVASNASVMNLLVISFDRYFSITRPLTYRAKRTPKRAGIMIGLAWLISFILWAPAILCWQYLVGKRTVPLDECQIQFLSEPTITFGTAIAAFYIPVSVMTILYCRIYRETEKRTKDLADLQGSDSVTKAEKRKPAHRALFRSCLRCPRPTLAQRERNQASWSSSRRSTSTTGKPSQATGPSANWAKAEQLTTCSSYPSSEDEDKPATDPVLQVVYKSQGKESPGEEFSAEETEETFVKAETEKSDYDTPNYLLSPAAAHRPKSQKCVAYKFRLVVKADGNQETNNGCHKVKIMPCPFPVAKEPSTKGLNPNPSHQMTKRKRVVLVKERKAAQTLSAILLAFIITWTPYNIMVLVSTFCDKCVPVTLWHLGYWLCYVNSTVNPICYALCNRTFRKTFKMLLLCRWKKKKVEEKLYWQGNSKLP
Cyclin-dependent kinase 17 (Homo sapiens), sequence (Q00537 whole entry, looked up): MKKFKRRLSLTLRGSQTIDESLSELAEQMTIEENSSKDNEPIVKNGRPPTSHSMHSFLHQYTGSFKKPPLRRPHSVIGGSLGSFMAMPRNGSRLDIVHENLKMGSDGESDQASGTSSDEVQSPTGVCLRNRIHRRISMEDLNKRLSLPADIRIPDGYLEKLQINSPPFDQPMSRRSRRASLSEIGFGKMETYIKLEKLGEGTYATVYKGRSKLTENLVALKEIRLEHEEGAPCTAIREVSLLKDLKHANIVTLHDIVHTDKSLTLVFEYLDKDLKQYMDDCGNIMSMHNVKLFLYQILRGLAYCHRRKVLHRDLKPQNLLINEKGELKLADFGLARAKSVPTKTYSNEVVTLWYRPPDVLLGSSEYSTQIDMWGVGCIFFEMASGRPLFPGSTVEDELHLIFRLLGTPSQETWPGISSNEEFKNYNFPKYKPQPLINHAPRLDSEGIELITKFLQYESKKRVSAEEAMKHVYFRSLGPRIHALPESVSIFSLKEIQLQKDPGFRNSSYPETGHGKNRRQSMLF
Vascular endothelial growth factor receptor 2 (Homo sapiens), sequence (P35968 whole entry): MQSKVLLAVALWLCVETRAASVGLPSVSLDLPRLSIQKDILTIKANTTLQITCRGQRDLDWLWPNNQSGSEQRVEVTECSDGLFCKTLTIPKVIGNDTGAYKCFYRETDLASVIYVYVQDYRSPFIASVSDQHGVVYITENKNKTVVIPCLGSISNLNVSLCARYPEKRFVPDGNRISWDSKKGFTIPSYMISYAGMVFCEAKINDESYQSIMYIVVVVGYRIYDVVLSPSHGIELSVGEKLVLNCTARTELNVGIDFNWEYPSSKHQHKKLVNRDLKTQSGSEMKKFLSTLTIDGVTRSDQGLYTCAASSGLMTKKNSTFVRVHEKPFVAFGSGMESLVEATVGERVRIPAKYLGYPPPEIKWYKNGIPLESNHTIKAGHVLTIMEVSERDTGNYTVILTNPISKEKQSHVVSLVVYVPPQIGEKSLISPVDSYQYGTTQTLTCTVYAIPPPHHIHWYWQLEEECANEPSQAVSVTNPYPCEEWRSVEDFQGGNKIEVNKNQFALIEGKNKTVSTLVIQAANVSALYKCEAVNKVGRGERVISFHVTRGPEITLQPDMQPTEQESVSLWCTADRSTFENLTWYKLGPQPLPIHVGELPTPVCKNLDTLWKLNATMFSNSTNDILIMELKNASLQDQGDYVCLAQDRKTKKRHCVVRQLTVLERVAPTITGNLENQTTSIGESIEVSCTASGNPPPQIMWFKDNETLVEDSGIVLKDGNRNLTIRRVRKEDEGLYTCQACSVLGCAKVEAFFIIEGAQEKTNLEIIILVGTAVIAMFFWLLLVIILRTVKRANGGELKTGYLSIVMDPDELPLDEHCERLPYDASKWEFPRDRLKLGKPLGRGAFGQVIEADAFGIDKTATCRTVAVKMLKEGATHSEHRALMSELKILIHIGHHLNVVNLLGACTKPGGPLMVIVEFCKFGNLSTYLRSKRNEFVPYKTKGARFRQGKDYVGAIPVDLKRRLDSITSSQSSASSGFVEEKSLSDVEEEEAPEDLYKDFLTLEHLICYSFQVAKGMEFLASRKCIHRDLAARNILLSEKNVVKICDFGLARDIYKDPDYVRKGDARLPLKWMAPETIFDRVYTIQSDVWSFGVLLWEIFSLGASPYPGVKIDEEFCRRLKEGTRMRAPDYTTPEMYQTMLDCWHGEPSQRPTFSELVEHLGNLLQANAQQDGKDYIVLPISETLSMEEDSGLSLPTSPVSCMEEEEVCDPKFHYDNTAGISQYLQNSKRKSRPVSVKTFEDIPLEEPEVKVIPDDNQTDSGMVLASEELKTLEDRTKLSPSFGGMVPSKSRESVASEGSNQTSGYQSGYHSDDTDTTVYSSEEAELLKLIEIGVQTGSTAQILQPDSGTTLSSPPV
Tyrosine-protein kinase receptor TYRO3 (Homo sapiens), sequence (Q06418 whole entry): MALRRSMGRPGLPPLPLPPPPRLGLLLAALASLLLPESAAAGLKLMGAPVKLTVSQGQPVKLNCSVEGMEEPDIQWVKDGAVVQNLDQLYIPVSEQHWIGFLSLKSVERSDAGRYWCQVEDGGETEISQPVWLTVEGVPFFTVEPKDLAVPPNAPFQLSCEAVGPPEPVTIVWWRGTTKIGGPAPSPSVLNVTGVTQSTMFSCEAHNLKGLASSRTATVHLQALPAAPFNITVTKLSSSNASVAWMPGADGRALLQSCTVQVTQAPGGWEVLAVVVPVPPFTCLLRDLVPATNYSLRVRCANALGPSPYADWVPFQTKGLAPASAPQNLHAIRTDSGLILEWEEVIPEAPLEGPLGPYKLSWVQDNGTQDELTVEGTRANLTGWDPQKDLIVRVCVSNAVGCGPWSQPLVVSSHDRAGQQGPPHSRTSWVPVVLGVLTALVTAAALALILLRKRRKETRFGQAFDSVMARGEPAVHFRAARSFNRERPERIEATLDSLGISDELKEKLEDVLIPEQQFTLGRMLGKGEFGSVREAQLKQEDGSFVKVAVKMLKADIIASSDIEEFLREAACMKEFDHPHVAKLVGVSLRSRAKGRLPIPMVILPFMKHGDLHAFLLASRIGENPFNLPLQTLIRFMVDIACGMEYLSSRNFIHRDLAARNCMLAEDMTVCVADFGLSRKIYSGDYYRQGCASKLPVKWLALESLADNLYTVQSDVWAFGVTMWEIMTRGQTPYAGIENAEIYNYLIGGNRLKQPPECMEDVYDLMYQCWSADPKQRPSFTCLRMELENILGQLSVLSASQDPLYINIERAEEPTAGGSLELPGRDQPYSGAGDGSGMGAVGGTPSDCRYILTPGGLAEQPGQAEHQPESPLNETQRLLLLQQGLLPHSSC
Sigma intracellular receptor 2, sequence (Q5BJF2 whole entry): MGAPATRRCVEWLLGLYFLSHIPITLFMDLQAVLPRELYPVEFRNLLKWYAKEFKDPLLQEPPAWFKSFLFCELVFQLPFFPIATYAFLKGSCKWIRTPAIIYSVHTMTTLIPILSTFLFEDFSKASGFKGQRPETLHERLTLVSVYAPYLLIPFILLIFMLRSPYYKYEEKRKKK
Serine/threonine-protein kinase 16 (Homo sapiens), sequence (O75716 whole entry): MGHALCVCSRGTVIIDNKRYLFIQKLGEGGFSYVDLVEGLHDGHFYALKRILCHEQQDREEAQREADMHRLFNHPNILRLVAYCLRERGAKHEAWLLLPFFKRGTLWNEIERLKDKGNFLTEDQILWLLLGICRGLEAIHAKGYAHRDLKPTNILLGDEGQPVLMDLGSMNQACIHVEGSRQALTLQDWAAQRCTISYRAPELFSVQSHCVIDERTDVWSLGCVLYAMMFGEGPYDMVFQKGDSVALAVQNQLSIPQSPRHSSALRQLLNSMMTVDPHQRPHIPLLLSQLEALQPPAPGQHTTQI

COc1cc(-c2cn([C@H]3CCc4c(F)cccc4N(CC(F)(F)F)C3=O)nn2)ccc1-n1cnc(C)c1
residual activity [1]: 71%
residual activity [2]: 90%
residual activity [3]: 82%
IC50 [4]: 0.031 µM (active)
residual activity [5]: 100%
residual activity [6]: 99%
residual activity [7]: 100%
residual activity [8]: 100%
residual activity [9]: 100%
residual activity [10]: 89%
residual activity [11]: 96%
residual activity [12]: 100%
residual activity [13]: 100%
residual activity [14]: 82%
residual activity [15]: 100%
residual activity [16]: 100%
inhibition [17]: 50%
residual activity [18]: 100%
inhibition (Rattus norvegicus): 8.82%
residual activity [19]: 100%
residual activity [20]: 100%
residual activity [21]: 84%
inhibition [22]: 26.1%
residual activity [23]: 100%
inhibition [24]: 18.2%
residual activity [25]: 100%
residual activity [26]: 100%
residual activity [27]: 100%
residual activity [28]: 100%
residual activity [29]: 100%
residual activity [30]: 100%
residual activity [31]: 92%
residual activity [32]: 100%
residual activity [33]: 90%
residual activity [34]: 100%
residual activity [35]: 100%
residual activity [36]: 100%
residual activity [37]: 100%
residual activity [38]: 100%
residual activity [39]: 100%
residual activity [40]: 97%
residual activity [41]: 100%
residual activity [42]: 96%
residual activity [43]: 100%
residual activity [44]: 100%
residual activity [45]: 100%

COc1cc(-c2cn([C@H]3CCc4ccccc4N(CC(F)(F)F)C3=O)nn2)ccc1-n1ccc(C)n1
residual activity [1]: 80%
residual activity [2]: 100%
residual activity [3]: 81%
IC50 [4]: > 10 µM (not active)
residual activity [5]: 100%
residual activity [6]: 100%
residual activity [7]: 100%
residual activity [8]: 100%
residual activity [9]: 100%
residual activity [10]: 99%
residual activity [11]: 100%
residual activity [12]: 75%
residual activity [13]: 100%
residual activity [14]: 81%
residual activity [15]: 100%
residual activity [16]: 73%
inhibition [17]: 72%
residual activity [18]: 100%
inhibition (Rattus norvegicus): 59.5%
residual activity [19]: 100%
residual activity [20]: 89%
residual activity [21]: 100%
inhibition [22]: 0.39%
residual activity [23]: 96%
inhibition [24]: 16.7%
residual activity [25]: 88%
residual activity [26]: 99%
residual activity [27]: 100%
residual activity [28]: 93%
residual activity [29]: 98%
residual activity [30]: 100%
residual activity [31]: 93%
residual activity [32]: 100%
residual activity [33]: 88%
residual activity [34]: 100%
residual activity [35]: 98%
residual activity [36]: 100%
residual activity [37]: 86%
residual activity [38]: 100%
residual activity [39]: 100%
residual activity [40]: 72%
residual activity [41]: 93%
residual activity [42]: 100%
residual activity [43]: 79%
residual activity [44]: 100%
residual activity [45]: 90%
